Entries after “also recorded” stand apart in the source; their conditions may differ.
How the values were obtained:
[1] = system: Matrix Metalloproteinase-9 (MMP-9) mRNA; experiment: MMP-9 mRNA in E. coli-treated HBE cells (dysbiosis model of lung epithelial cells), qRT-PCR; assay type: cell-based, human; details: 4 hours at 37° C.
Method: In FIG. 2, human primary epithelial (HBE) cells were seeded on a 6 well plate with 4×10^5 cells in each well. 16 hours later, the medium was changed to fresh DULBECCO'S Modified Eagle Medium/Nutrient Mixture F-12 (DMEM/F12) without antibiotic, and E. coli was added to the cells at a final concentration of 5.0×10^7 E. coli cells/ml. L(+) Lactic acid was added together with E. coli at a final lactic acid concentration of 5 mM, 10 mM, or 20 mM. The cells were incubated at 37° C. for 4 hours and then harvested with QIAZOL reagent. RNA was extracted according to the QIAZOL protocol. The level of Matrix Metalloproteinase-9 (MMP-9) mRNA was measured by quantitative real-time PCR (qRT-PCR). In FIG. 5, human bronchial epithelial (HBE) cells were seeded on a 6 well plate with 4×10^5 cells in each well. 16 hours later, the medium was changed to fresh DULBECCO'S Modified Eagle Medium/Nutrient Mixture F-12 (DMEM/F12) without antibiotic, and E. coli was added to the cells at a final concentration of 5.0×10^7 E. coli cells/ml. D(−) Lactic acid was added together with E. coli at a final lactic acid concentration of 0.25 ug/mL, 0.5 ug/mL, or 2 μg/mL. The cells were incubated at 37° C. for 4 hours and then harvested with QIAZOL reagent. RNA was extracted according to the QIAZOL protocol. The level of Matrix Metalloproteinase-9 (MMP-9) mRNA was measured by quantitative real-time PCR (qRT-PCR).

[2] = system: Matrix Metalloproteinase-9 (MMP-9) mRNA; experiment: MMP-9 mRNA in Caco-2 intestinal epithelial cells inoculated with E. coli, qRT-PCR; assay type: cell-based, human; details: Caco-2 cells inoculated with E. coli; L(+) lactic acid 1.5 mM, 3 mM or 6 mM; 4 hours at 37° C.
Method: In FIG. 3, human intestinal epithelial cells (IECs) from the Caco-2 cell line were seeded on a 6 well plate with 4×10^5 cells in each well. 16 hours later, the medium was changed to fresh DULBECCO'S Modified Eagle Medium/Nutrient Mixture F-12 (DMEM/F12) without antibiotic, and E. coli was added to the cells at a final concentration of 5.0×10^7 E. coli cells/ml. L(+) Lactic acid was added together with E. coli at a final lactic acid concentration of 1.5 mM, 3 mM, or 6 mM. The cells were incubated at 37° C. for 4 hours and then harvested with QIAZOL reagent. RNA was extracted according to the QIAZOL protocol. The level of Matrix Metalloproteinase-9 (MMP-9) mRNA was measured by quantitative real-time PCR (qRT-PCR).

MMP-9 mRNA = MMP-9 mRNA in A549 NSCLC adenocarcinoma cells inoculated with E. coli, real-time qPCR; assay type: cell-based; details: 0.25 μg to 4 ug L-LA, 4 hours at 37° C.
Method: In FIG. 4, 2×10^5 A549 cells were seeded in 500 μL growth medium per each well of a 24-well plate. Cells were treated with: (1) 2 uL PBS (control), (2) 5×10^8 E. coli cells (E. coli), (3) or 5×10*8 cells E. coli with 0.25 ug, 0.5 ug, 1 ug, 2 ug, or 4 ug L-lactic acid. The cells were incubated for 4 hours at 37° C. Cells were harvested, RNA was extracted with an RNA extraction kit, the concentration of total RNA was measured, cDNA was obtained using a High-Capacity cDNA Reverse Transcription Kit, and then a TAQMAN real-time qPCR protocol was performed on the cDNA.

[3] = pure water; cited from earlier work

C[C@@H](O)C(=O)O [D-lactic acid]
MMP-9 mRNA levels ([1]; HBE cells inoculated with E. coli, 0.25 μg to 2 ug D-LA): no statistical difference

C[C@H](O)C(=O)O [L-lactic acid]
MMP-9 mRNA levels ([1]; HBE cells treated with E. coli, L(+) lactic acid 5 mM, 10 mM or 20 mM): MMP-9 reduction; also recorded: decreased
MMP-9 mRNA levels [2]: decreased
MMP-9 mRNA levels (MMP-9 mRNA): decreased

Polyoxyethylene (20) sorbitan monooleate [polysorbate 80]
critical micelle concentration [3]: 0.012 mM
